From article PMC4210713, “Intragenic antimicrobial peptides from Theobroma cacao” (BMC Proceedings, 2014)
Where no end group is shown, it is not given here.

Test system: Candida albicans ATCC 90028
Conditions: C. albicans ATCC 90028; broth microdilution, CLSI M27-A3; tested at 256 μM-0.5 μM; preliminary results

Q: How did the “MIC (minimum inhibitory concentration)” value turn out when GFKDLLKGAAKALVKTVLF-NH2 [Ascaphin-8] was run?
A: 8 µM
